Laboratory results reported in ChEMBL document CHEMBL5335843, “Application of tobramycin benzyl ether as an antibiotic adjuvant capable of sensitizing multidrug-resistant Gram-negative bacteria to rifampicin” (2024).

Key:
Format in all cases: functional
Escherichia coli [1] = assay: Antibacterial activity against multi-drug resistant Escherichia coli clinical isolate 94393 assessed as inhibition of bacterial growth incubated for 18 hrs by two fold broth microdilution assay
Escherichia coli [2] = assay: Antibiotic adjuvant activity against multi-drug resistant Escherichia coli clinical isolate 107115 assessed as rifampicin MIC incubated for 18 hrs in presence of Rifampicin by two fold broth microdilution checkerboard assay
Acinetobacter baumannii [3] = assay: Antibiotic adjuvant activity against multi-drug resistant Acinetobacter baumannii clinical isolate LAC-4 assessed as rifampicin MIC incubated for 18 hrs in presence of Rifampicin by two fold broth microdilution checkerboard assay
Acinetobacter baumannii [4] = assay: Antibiotic adjuvant activity against multi-drug resistant Acinetobacter baumannii clinical isolate AB031 assessed as inhibition of bacterial growth incubated for 18 hrs in presence of Rifampicin by two fold broth microdilution checkerboard assay
Acinetobacter baumannii [5] = assay: Antibiotic adjuvant activity against multi-drug resistant Acinetobacter baumannii clinical isolate 110193 assessed as inhibition of bacterial growth incubated for 18 hrs in presence of Rifampicin by two fold broth microdilution checkerboard assay
Pseudomonas aeruginosa [6] = assay: Antibiotic adjuvant activity against multi-drug resistant Pseudomonas aeruginosa clinical isolate PA262 assessed as fold potentiation incubated for 18 hrs in presence of Rifampicin by two fold broth microdilution checkerboard assay
Escherichia coli [7] = assay: Antibiotic adjuvant activity against multi-drug resistant Escherichia coli clinical isolate 94474 assessed as fractional inhibitory concentration index incubated for 18 hrs in presence of Rifampicin by two fold broth microdilution checkerboard assay
Escherichia coli [8] = assay: Antibacterial activity against multi-drug resistant Escherichia coli clinical isolate EC94474 assessed as inhibition of bacterial growth incubated for 18 hrs by two fold broth microdilution assay
Pseudomonas aeruginosa [9] = assay: Antibiotic adjuvant activity against multi-drug resistant Pseudomonas aeruginosa clinical isolate PA101243 assessed as minocycline MIC incubated for 18 hrs in presence of minocycline by two fold broth microdilution checkerboard assay
Pseudomonas aeruginosa [10] = assay: Antibiotic adjuvant activity against multi-drug resistant Pseudomonas aeruginosa clinical isolate PA259 assessed as inhibition of bacterial growth incubated for 18 hrs in presence of minocycline by two fold broth microdilution checkerboard assay
Escherichia coli [11] = assay: Antibiotic adjuvant activity against multi-drug resistant Escherichia coli clinical isolate EC94474 assessed as fold potentiation incubated for 18 hrs in presence of minocycline by two fold broth microdilution checkerboard assay
Pseudomonas aeruginosa [12] = assay: Antibiotic adjuvant activity against multi-drug resistant Pseudomonas aeruginosa clinical isolate PA262 assessed as fractional inhibitory concentration index incubated for 18 hrs in presence of minocycline by two fold broth microdilution checkerboard assay
Pseudomonas aeruginosa [13] = assay: Antibiotic adjuvant activity against multi-drug resistant Pseudomonas aeruginosa clinical isolate PA262 assessed as doxycycline MIC incubated for 18 hrs in presence of doxycycline by two fold broth microdilution checkerboard assay
Pseudomonas aeruginosa [14] = assay: Antibiotic adjuvant activity against multi-drug resistant Pseudomonas aeruginosa clinical isolate PA262 assessed as fold potentiation incubated for 18 hrs in presence of doxycycline by two fold broth microdilution checkerboard assay
Escherichia coli [15] = assay: Antibiotic adjuvant activity against multi-drug resistant Escherichia coli clinical isolate EC107115 assessed as fold potentiation incubated for 18 hrs in presence of doxycycline by two fold broth microdilution checkerboard assay
Escherichia coli [16] = assay: Antibiotic adjuvant activity against multi-drug resistant Escherichia coli clinical isolate EC94474 assessed as fold potentiation incubated for 18 hrs in presence of doxycycline by two fold broth microdilution checkerboard assay
Pseudomonas aeruginosa [17] = assay: Antibiotic adjuvant activity against multi-drug resistant Pseudomonas aeruginosa clinical isolate PA262 assessed as fractional inhibitory concentration index incubated for 18 hrs in presence of doxycycline by two fold broth microdilution checkerboard assay
Enterococcus faecium [18] = assay: Antibiotic adjuvant activity against Enterococcus faecium 128149 assessed as rifampicin MIC incubated for 18 hrs in presence of rifampicin by two fold broth microdilution checkerboard assay
Enterococcus faecium [19] = assay: Antibiotic adjuvant activity against Enterococcus faecium 128149 assessed as fractional inhibitory concentration index incubated for 18 hrs in presence of rifampicin by two fold broth microdilution checkerboard assay
Escherichia coli [20] = assay: Antibiotic adjuvant activity against Escherichia coli ATCC 25922 assessed as fold potentiation incubated for 18 hrs in presence of Rifampicin by two fold broth microdilution checkerboard assay
Escherichia coli [21] = assay: Antibiotic adjuvant activity against Escherichia coli ATCC 25922 assessed as rifampicin MIC incubated for 18 hrs in presence of Rifampicin by two fold broth microdilution checkerboard assay
Escherichia coli [22] = assay: Antibiotic adjuvant activity against Escherichia coli ATCC 25922 assessed as fold potentiation incubated for 18 hrs in presence of vancomycin by two fold broth microdilution checkerboard assay
Escherichia coli [23] = assay: Antibiotic adjuvant activity against Escherichia coli ATCC 25922 assessed as fold potentiation incubated for 18 hrs in presence of rifampicin and CAMHB Mg2+ media by two fold broth microdilution checkerboard assay
Pseudomonas aeruginosa [24] = assay: Antibiotic adjuvant activity against Pseudomonas aeruginosa PAO1 assessed as fold increase in MIC incubated for 18 hrs in presence of rifampicin and CAMHB Mg2+ media by two fold broth microdilution checkerboard assay
Acinetobacter baumannii [25] = assay: Antibiotic adjuvant activity against Acinetobacter baumannii ATCC 17978 assessed as fold potentiation incubated for 18 hrs in presence of rifampicin and CAMHB Na+ media by two fold broth microdilution checkerboard assay
Acinetobacter baumannii [26] = assay: Antibiotic adjuvant activity against Acinetobacter baumannii ATCC 17978 assessed as fold potentiation at 8 to 16 ug/ml incubated for 18 hrs in presence of rifampicin and FBS media by two fold broth microdilution checkerboard assay; settings: dose 8-16 µg/ml
Acinetobacter baumannii [27] = assay: Antibiotic adjuvant activity against Acinetobacter baumannii ATCC 17978 assessed as novobiocin MIC incubated for 18 hrs in presence of novobiocin by two fold broth microdilution checkerboard assay

Cl.NC[C@H]1O[C@H](O[C@H]2[C@H](OCc3ccccc3)[C@@H](O[C@H]3O[C@H](COCc4ccccc4)[C@@H](OCc4ccccc4)[C@H](N)[C@H]3OCc3ccccc3)[C@H](N)C[C@@H]2N)[C@H](N)C[C@@H]1OCc1ccccc1
MIC (Escherichia coli [1]): 32 µg/mL
MIC (Escherichia coli [2]): 0.125 µg/mL
MIC (Acinetobacter baumannii [3]): 0.002 µg/mL
MIC (Acinetobacter baumannii [4]): 8 µg/mL
MIC (Acinetobacter baumannii [5]): 8 µg/mL
fold change (FC) (Pseudomonas aeruginosa [6]): 1
fractional inhibitory concentration index (FICI) (Escherichia coli [7]): 0.129
MIC (Escherichia coli [8]): 32 µg/mL
MIC (Pseudomonas aeruginosa [9]): 64 µg/mL
MIC (Pseudomonas aeruginosa [10]): 8 µg/mL
fold change (FC) (Escherichia coli [11]): 64
fractional inhibitory concentration index (FICI) (Pseudomonas aeruginosa [12]): 1.063
MIC (Pseudomonas aeruginosa [13]): 512 µg/mL
fold change (FC) (Pseudomonas aeruginosa [14]): 1
fold change (FC) (Escherichia coli [15]): 4
fold change (FC) (Escherichia coli [16]): 8
fractional inhibitory concentration index (FICI) (Pseudomonas aeruginosa [17]): 1.063
MIC (Enterococcus faecium [18]): 8 µg/mL
fractional inhibitory concentration index (FICI) (Enterococcus faecium [19]): 1.5
fold change (FC) (Escherichia coli [20]): 8
MIC (Escherichia coli [21]): 0.008 µg/mL
fold change (FC) (Escherichia coli [22]): 4
fold change (FC) (Escherichia coli [23]): 2
fold change (FC) (Pseudomonas aeruginosa [24]): >=2
fold change (FC) (Acinetobacter baumannii [25]): 256
fold change (FC) (Acinetobacter baumannii [26]): 4
MIC (Acinetobacter baumannii [27]): 0.5 µg/mL
